Data as given in patent US11090319B2, “Therapeutic uses of pharmaceutical compositions comprising cyclic boronic acid ester derivatives” (Melinta Subsidiary Corp., priority 2010, dated 2021).
Like-named read-outs stand apart in the source and are kept apart here.

Columns and labels:
[1] = system: CF1001 Citrobacter freundii Hyper AmpC expression; assay: Ceftazidime MIC with fixed concentration of BLI; format: cell-based; settings: for Ceftazidime MIC with cyclic boronic acid ester derivative: derivative at 10 μg/mL
Method: (§1) Next, ceftazidime potentiation activity of several cyclic boronic acid ester derivatives was tested using a larger panel of strains expressing β-lactamase hydrolyzing enzymes. Ceftazidime MICs were determined alone and in the presence of fixed concentrations of various cyclic boronic acid ester derivatives.

[2] = system: EC1007 Escherichia coli KPC-3; assay: Ceftazidime MIC with fixed concentration of BLI; format: cell-based; settings: EC1007 KPC-3; for Ceftazidime MIC with cyclic boronic acid ester derivative: derivative at 10 μg/mL
Method: as §1

[3] = system: EC1016 Escherichia coli FOX-5; assay: Ceftazidime MIC with fixed concentration of BLI; format: cell-based; settings: EC1016 FOX-5; for Ceftazidime MIC with cyclic boronic acid ester derivative: derivative at 10 μg/mL
Method: as §1

[4] = system: ECL1003 Enterobacter cloacae Hyper AmpC expression; assay: Ceftazidime MIC with fixed concentration of BLI; format: cell-based; settings: for Ceftazidime MIC with cyclic boronic acid ester derivative: derivative at 10 μg/mL
Method: as §1

[5] = system: KP1006 Klebsiella pneumoniae CTX-M2; assay: Ceftazidime MIC with fixed concentration of BLI; format: cell-based; settings: for Ceftazidime MIC with cyclic boronic acid ester derivative: derivative at 10 μg/mL
Method: as §1

[6] = system: KP1013 Klebsiella pneumoniae CMY-2; assay: Ceftazidime MIC with fixed concentration of BLI; format: cell-based; settings: KP1013 CMY-2; for Ceftazidime MIC with cyclic boronic acid ester derivative: derivative at 10 μg/mL
Method: as §1

[7] = system: PAM2005 Pseudomonas aeruginosa ampC; assay: Ceftazidime MIC with fixed concentration of BLI; format: cell-based; settings: for Ceftazidime MIC with cyclic boronic acid ester derivative: derivative at 10 μg/mL
Method: as §1

SA1000 Salmonella CMY-2 = assay: Ceftazidime MIC with fixed concentration of BLI; format: cell-based; settings: SA1000 CMY-2; for Ceftazidime MIC with cyclic boronic acid ester derivative: derivative at 10 μg/mL
Method: as §1

[8] = system: KP1011 Klebsiella pneumoniae SHV-5; assay: microbe, parasite or virus in culture; format: cell-based; settings: for Ceftazidime MIC with cyclic boronic acid ester derivative: derivative at 10 μg/mL, KP1011 SHV-5
Method: as §1

[9] = target: various β-lactamases (bacterial lysates) (Escherichia coli, UniProt A0A5R8T042); assay: biochemical; format: biochemical; settings: read-out: AZT IC50 KP1009 CTX-M-15
[10] = target: various β-lactamases (bacterial lysates) (Escherichia coli, UniProt A0A649V088); assay: biochemical; format: biochemical; settings: read-out: AZT IC50 KP1005 CTX-M-14
[11] = target: various β-lactamases (bacterial lysates) (Klebsiella pneumoniae, UniProt Q9F663); assay: biochemical; format: biochemical; settings: aztreonam cleavage
[12] = target: various β-lactamases (bacterial lysates) (Klebsiella pneumoniae, UniProt Q9F663, H272Y); assay: biochemical; format: biochemical
[13] = target: various β-lactamases (bacterial lysates) (Pseudomonas aeruginosa, UniProt P14489); assay: biochemical; format: biochemical; settings: AZT IC50 KP1007 OXA-10
[14] = target: various β-lactamases (bacterial lysates) (Salmonella typhimurium, UniProt P0A1V8); assay: biochemical; format: biochemical; settings: AZT IC50 KPX1001 OXA-2
[15] = system: ECL1004 Enterobacter cloacae NMC-A; assay: Checkerboard assay, biapenem potentiation; settings: Biapenem MIC 8-fold; ECL1004 NMC-A class A
[16] = system: AB1052 Acinetobacter baumannii OXA-24; assay: Checkerboard assay, biapenem potentiation; settings: Biapenem MIC 8-fold; AB1052 OXA-24 class D
[17] = target: CTX-M-14, lysate of KP1005 (Escherichia coli, UniProt Q9L5C7); assay: Inhibition of ceftazidime hydrolysis by bacterial lysate
GES-1, lysate of pa 1063 = GES-1, lysate of pa 1063 (Klebsiella pneumoniae, UniProt Q9KJY7); assay: as above
KPC-2, lysate of KP1004 = KPC-2, lysate of KP1004 (Klebsiella pneumoniae, UniProt Q9F663); assay: as above
KPC-2, lysate of KP1008 = KPC-2, lysate of KP1008 (Klebsiella pneumoniae, UniProt Q9F663); assay: as above
SHV-12, lysate of KP1010 = SHV-12, lysate of KP1010 (Klebsiella pneumoniae, UniProt P0AD64, E235K/G234S/L31Q); assay: as above
SHV-18, lysate of KP1012 = SHV-18, lysate of KP1012 (Klebsiella pneumoniae, UniProt P0AD64, E235K/G234A/R39S); assay: as above
SHV-2, lysate of ec306 = SHV-2, lysate of ec306 (Escherichia coli, UniProt P0A9Z7); assay: as above
SHV-5, lysate of ec308 = SHV-5, lysate of ec308 (Escherichia coli, UniProt P0AD63, E235K/G234S); assay: as above
DHA-1, lysate of EC1014 = DHA-1, lysate of EC1014 (Escherichia coli, UniProt Q84AE0); assay: as above; settings: read-out: IC50 of inhibition of Ceftazidime hydrolysis; EC1014 DHA-1
OXA-2, lysate of KX1000 = OXA-2, lysate of KX1000 (Salmonella typhimurium, UniProt P0A1V8); assay: as above
[18] = target: various β-lactamases (bacterial lysates) (Escherichia coli, UniProt Q53TY8); assay: Inhibition of nitrocefin cleavage by bacterial lysates, Table 11; format: biochemical; settings: lysate EC1010 pAmpC (CMY-6), read-out: NCF IC50 EC1010 pAmpC (CMY-6)
SME-2, lysate of SM1000 = SME-2, lysate of SM1000 (Serratia marcescens, UniProt P52682); assay: Inhibition of biapenem hydrolysis by bacterial lysate; settings: read-out: IC50 of inhibition of biapenem hydrolysis; SM1000 SME-2
[19] = Escherichia coli, read-out: Ceftazidime MIC Alone
[20] = Klebsiella pneumoniae, read-out: Ceftazidime MIC Alone
[21] = lysate KP1004 KPC-2, read-out: AZT IC50 KP1004 KPC-2 (converted)
[22] = lysate KP1008 KPC-2, read-out: AZT IC50 KP1008 KPC-2

various β-lactamases (bacterial lysates) (Escherichia coli, UniProt A0A5R8T042), sequence (A0A5R8T042 29-291): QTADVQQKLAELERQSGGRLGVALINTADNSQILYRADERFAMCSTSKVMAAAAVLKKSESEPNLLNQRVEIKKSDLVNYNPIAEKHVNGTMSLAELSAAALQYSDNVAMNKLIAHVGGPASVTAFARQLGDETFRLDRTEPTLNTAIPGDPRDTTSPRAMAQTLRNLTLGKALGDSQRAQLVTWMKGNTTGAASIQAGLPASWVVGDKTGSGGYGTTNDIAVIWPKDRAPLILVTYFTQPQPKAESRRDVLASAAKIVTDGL

Row | Structure (SMILES) | Ceftazidime MIC with cyclic boronic acid ester derivative [1] | Ceftazidime MIC with cyclic boronic acid ester derivative [2] | Ceftazidime MIC with cyclic boronic acid ester derivative [3] | Ceftazidime MIC with cyclic boronic acid ester derivative [4] | Ceftazidime MIC with cyclic boronic acid ester derivative [5] | Ceftazidime MIC with cyclic boronic acid ester derivative [6] | Ceftazidime MIC with cyclic boronic acid ester derivative [7] | Ceftazidime MIC with cyclic boronic acid ester derivative (SA1000 Salmonella CMY-2) | IC50 [9] [µM] | IC50 [10] [µM] | IC50 [11, 21] [µM] | IC50 [11, 22] [µM] | IC50 [17] [µM] | IC50 (GES-1, lysate of pa 1063) [µM] | IC50 (SHV-12, lysate of KP1010) [µM] | IC50 (SHV-18, lysate of KP1012) [µM] | IC50 (SHV-2, lysate of ec306) [µM] | IC50 (SHV-5, lysate of ec308) [µM] | IC50 (DHA-1, lysate of EC1014) [µM] | IC50 (OXA-2, lysate of KX1000) [µM] | further results
1 | CC(C)(O/N=C(\C(=O)N[C@@H]1C(=O)N2C(C(=O)[O-])=C(C[n+]3ccccc3)CS[C@H]12)c1csc(N)n1)C(=O)O [Ceftazidime, reference compound] |  |  |  |  |  |  |  |  |  |  |  |  |  |  |  |  |  |  |  |  | MIC ([1]; Citrobacter freundii, read-out: Ceftazidime MIC Alone): > 8 µg/mL; MIC [2, 19]: > 8 µg/mL; MIC [3, 19]: > 8 µg/mL; MIC ([4]; Enterobacter cloacae, read-out: Ceftazidime MIC Alone): > 8 µg/mL; MIC [5, 20]: 1 to 8 µg/mL; MIC [6, 20]: > 8 µg/mL; MIC ([7]; Pseudomonas aeruginosa, read-out: Ceftazidime MIC Alone): > 8 µg/mL; MIC (SA1000 Salmonella CMY-2; Salmonella, read-out: Ceftazidime MIC Alone): > 8 µg/mL; MIC [8, 20]: 1 to 8 µg/mL
2 | CC(=O)N[C@H]1CCC(CC(=O)O)OB1O (stereo partly drawn) [Compound 3, 2-((3R)-3-acetamido-2-hydroxy-1,2-oxaborinan-6-yl)acetic acid] | Z (MIC of greater than 8 μg/mL) | X (MIC of 1 μg/mL or less) | Z (MIC of greater than 8 μg/mL) | Z (MIC of greater than 8 μg/mL) | X (MIC of 1 μg/mL or less) | Z (MIC of greater than 8 μg/mL) | Z (MIC of greater than 8 μg/mL) | Z (MIC of greater than 8 μg/mL) | > 9.3 | < 2.33 | < 2.33 | 2.33 to 9.3 | > 4.65 | > 4.65 | > 4.65 | > 4.65 | > 4.65 | > 4.65 | > 4.65 | > 4.65 | Ceftazidime MIC with cyclic boronic acid ester derivative [8]: X (MIC of 1 μg/mL or less); IC50 [12]: < 2.33 µM; IC50 [13]: > 9.3 µM; IC50 [14]: > 9.3 µM; MPC8 [15]: X (MPC8 of less than 0.16 μg/mL); MPC8 [16]: Z (MPC8 of greater than 1 μg/mL); IC50 (KPC-2, lysate of KP1004): < 0.465 µM; IC50 (KPC-2, lysate of KP1008): 0.465 to 4.65 µM
3 | O=C(O)CC1CC[C@H](NC(=O)C2CC2)B(O)O1 (stereo partly drawn) [Compound 4, 2-((3R)-3-(cyclopropanecarboxamido)-2-hydroxy-1,2-oxaborinan-6-yl)acetic acid] | Z (MIC of greater than 8 μg/mL) | X (MIC of 1 μg/mL or less) | Z (MIC of greater than 8 μg/mL) | Z (MIC of greater than 8 μg/mL) | X (MIC of 1 μg/mL or less) | Y (MIC of greater than 1 μg/mL to 8 μg/mL) | Z (MIC of greater than 8 μg/mL) | Y (MIC of greater than 1 μg/mL to 8 μg/mL) | 2.07 to 8.3 | < 2.07 | < 2.07 | < 2.07 | > 4.15 | 0.415 to 4.15 | > 4.15 | > 4.15 | > 4.15 | > 4.15 | > 4.15 | > 4.15 | Ceftazidime MIC with cyclic boronic acid ester derivative [8]: X (MIC of 1 μg/mL or less); IC50 [12]: < 2.07 µM; IC50 [13]: > 8.3 µM; IC50 [14]: > 8.3 µM; IC50 [18]: > 8.3 µM; MPC8 [15]: X (MPC8 of less than 0.16 μg/mL); MPC8 [16]: Z (MPC8 of greater than 1 μg/mL); IC50 (SME-2, lysate of SM1000): 0.415 to 4.15 µM; IC50 (KPC-2, lysate of KP1004): < 0.415 µM; IC50 (KPC-2, lysate of KP1008): < 0.415 µM
4 | O=C(O)C[C@@H]1CC[C@H](NC(=O)Cc2cccs2)B(O)O1 [Compound 5, 2-((3R,6S)-2-hydroxy-3-(2-(thiophen-2-yl)acetamido)-1,2-oxaborinan-6-yl)acetic acid] | Y (MIC of greater than 1 μg/mL to 8 μg/mL) | X (MIC of 1 μg/mL or less) | Z (MIC of greater than 8 μg/mL) | Z (MIC of greater than 8 μg/mL) | X (MIC of 1 μg/mL or less) | Y (MIC of greater than 1 μg/mL to 8 μg/mL) | Z (MIC of greater than 8 μg/mL) | Y (MIC of greater than 1 μg/mL to 8 μg/mL) | 1.68 to 6.73 | < 1.68 | < 1.68 | < 1.68 | < 0.337 | < 0.337 | 0.337 to 3.37 | 0.337 to 3.37 | 0.337 to 3.37 | > 3.37 | 0.337 to 3.37 | < 0.337 | IC50 [12]: < 1.68 µM; IC50 [13]: > 6.73 µM; IC50 [14]: < 1.68 µM; IC50 [18]: > 6.73 µM; MPC8 [15]: Y (MPC8 of 0.16 μg/mL to 1 μg/mL); MPC8 [16]: Z (MPC8 of greater than 1 μg/mL); IC50 (SME-2, lysate of SM1000): < 0.337 µM
5 | Cl.N[C@H]1CCC(CC(=O)O)OB1O (stereo partly drawn) [Compound 7, 2-((3R)-3-amino-2-hydroxy-1,2-oxaborinan-6-yl)acetic acid hydrochloride] |  | Z (MIC of greater than 8 μg/mL) |  |  |  |  | Z (MIC of greater than 8 μg/mL) |  |  |  |  |  | > 4.77 | 0.477 to 4.77 | > 4.77 | > 4.77 | > 4.77 | > 4.77 | > 4.77 | > 4.77 | IC50 (KPC-2, lysate of KP1004): > 4.77 µM; IC50 (KPC-2, lysate of KP1008): > 4.77 µM
